According to US20210330594A1, “Fast-Acting Soft Gelatin Capsules Containing A Mixture Of Pain Reliever/Fever Reducer, Diuretic And Antihistamine” (PuraCap Pharmaceutical LLC, priority 2018, published 2021):
Counter-ions that a name gives are not always drawn.

Assay: Stability determination of softgels under accelerated conditions (API assay)
Format: physicochemical
Details: for T0 % of label: softgel of Example 1, initial (T0) API assay; for Assay % of label 40° C./75% RH 1 M / Assay % of label 40° C./75% RH 2 M / Assay % of label 40° C./75% RH 3 M: softgel, accelerated conditions 40° C./75% RH
Procedure: Manufactured softgels are evaluated to predict shelf life of the product. Softgel samples are kept under accelerated conditions (ACC) of 40° C./75% RH for 180 days. Samples are withdrawn and tested at predetermined periods for API assay and homogeneity. Results are compared against the label specification; if ACC-6M results (i.e., at 6 months) are within specification then a product shelf life of 2 years is predicted.

Structure (SMILES): CC(=O)Nc1ccc(O)cc1 [Acetaminophen]
- T0 % of label: 94.2 % of label
- Assay % of label 40° C./75% RH 1 M: 94.0 % of label
- Assay % of label 40° C./75% RH 2 M: 94.1 % of label
- Assay % of label 40° C./75% RH 3 M: 92.2 % of label

Structure (SMILES): Cn1c(=O)c2[nH]c(Br)nc2n(C)c1=O [Pamabrom]
- T0 % of label: 95.5 % of label
- Assay % of label 40° C./75% RH 1 M: 95.1 % of label
- Assay % of label 40° C./75% RH 2 M: 95.0 % of label
- Assay % of label 40° C./75% RH 3 M: 93.4 % of label

Structure (SMILES): COc1ccc(CN(CCN(C)C)c2ccccn2)cc1 [Pyrilamine Maleate]
- T0 % of label: 94.3 % of label
- Assay % of label 40° C./75% RH 1 M: 94.0 % of label
- Assay % of label 40° C./75% RH 2 M: 94.2 % of label
- Assay % of label 40° C./75% RH 3 M: 93.9 % of label
